From patent US20100160351A1, “PHARMACEUTICAL COMPOSITIONS AND METHODS FOR TREATING HYPERURICEMIA AND RELATED DISORDERS” (NUON THERAPEUTICS, INC., priority 2008, published 2010)

System: serum uric acid (sUA) levels in hyperuricemic patients
Assay: PRESTO study: change in serum uric acid in hyperuricemic patients (baseline >=8 mg/dL), Tranilast twice daily for 1 or 3 months
Assay type: in vivo, human
Protocol: The PRESTO (Prevention of Restenosis with Tranilast and its Outcomes) study was a multicenter study of ˜11,500 patients undergoing percutaneous transluminal coronary revascularization (PTCR) with or without stenting for single or multiple vessels over a 9-month period. The study compared the composite clinical event rate of death, myocardial infarction, or need for ischemia-driven target vessel revascularization in patients treated with Tranilast (300 and 450 mg twice daily) for 1 or 3 months versus placebo. Description of the study protocol and patient population can be found in Holmes et al., The PRESTO (Prevention of Restenosis with Tranilast and its Outcomes) protocol: A double-blind, placebo-controlled trial, Am Heart J 2000; 139:23-31; and Holmes et al., Results of Prevention of REStenosis with Tranilast and its Outcomes (PRESTO) Trial, Circulation. 2002; 106:1243, both of which are incorporated by reference herein in their entirety.
Gout was a contraindication for patient enrollment in the PRESTO trial. Nevertheless, 1100 patients enrolled in the trial were identified with baseline hyperuricemia defined as initial serum uric acid (sUA) levels greater than or equal to 7 mg/dL. Of these, approximately 300 participants had baseline serum uric acid levels greater than or equal to 8 mg/dL. […] As indicated in FIG. 1 and Table 4, some patients were treated with placebo, some patients were treated with Tranilast for 4 weeks followed by placebo, and some patients were treated with Tranilast for 12 weeks.

[1] = 1M TRAN 300 mg/2M PLACEBO, Follow-Up
[2] = 1M TRAN 300 mg/2M PLACEBO, Post-PTCR
[3] = 1M TRAN 300 mg/2M PLACEBO, Week 1
[4] = 1M TRAN 300 mg/2M PLACEBO, Week 2
[5] = 1M TRAN 300 mg/2M PLACEBO, Week 3
[6] = 1M TRAN 300 mg/2M PLACEBO, Week 4
[7] = 1M TRAN 300 mg/2M PLACEBO, Week 6
[8] = 1M TRAN 300 mg/2M PLACEBO, Week 8
[9] = 1M TRAN 300 mg/2M PLACEBO, Week 10
[10] = 1M TRAN 300 mg/2M PLACEBO, Week 12
[11] = 1M TRAN 450 mg/2M PLACEBO, Follow-Up
[12] = 1M TRAN 450 mg/2M PLACEBO, Post-PTCR
[13] = 1M TRAN 450 mg/2M PLACEBO, Week 1
[14] = 1M TRAN 450 mg/2M PLACEBO, Week 2
[15] = 1M TRAN 450 mg/2M PLACEBO, Week 3
[16] = 1M TRAN 450 mg/2M PLACEBO, Week 4
[17] = 1M TRAN 450 mg/2M PLACEBO, Week 6
[18] = 1M TRAN 450 mg/2M PLACEBO, Week 8
[19] = 1M TRAN 450 mg/2M PLACEBO, Week 10
[20] = 1M TRAN 450 mg/2M PLACEBO, Week 12

How did the “Change from Baseline in Uric Acid, Max” value [1] turn out when `COc1ccc(/C=C/C(=O)Nc2ccccc2C(=O)O)cc1OC` [Tranilast, 2-[[3-(3,4-dimethoxyphenyl)-1-oxo-2-propenyl]amino]benzoic acid] was run?
The value was 2.00 mg/dL.

And the “Change from Baseline in Uric Acid, Mean (SD)” value (“Change from Baseline … (SD)” below) [1]?
The value was −0.64 (1.351) mg/dL.

What about the “Change from Baseline in Uric Acid, Median” value (shortened to “Change … Median”) [1] of the same molecule?
Its value is -0.86 mg/dL.

And the “Change from Baseline in Uric Acid, Min” value [1]?
The value was -3.30 mg/dL.

And the “Change from Baseline in Uric Acid, Max” value [2]?
Its value is 2.03 mg/dL.

And the “Change from Baseline … (SD)” value [2]?
Its value is −1.33 (1.220) mg/dL.

What about the “Change … Median” value [2] of the same molecule?
Its value is -1.30 mg/dL.

And the “Change from Baseline in Uric Acid, Min” value [2]?
The value was -4.54 mg/dL.

And the “Change from Baseline in Uric Acid, Max” value [3]?
The value was 2.70 mg/dL.

What about the “Change from Baseline … (SD)” value [3] of the same molecule?
Its value is −2.31 (1.839) mg/dL.

What about the “Change … Median” value [3] of the same molecule?
The value was -2.51 mg/dL.

What about the “Change from Baseline in Uric Acid, Min” value [3] of the same molecule?
Its value is -6.05 mg/dL.

What about the “Change from Baseline in Uric Acid, Max” value [4] of the same molecule?
Its value is 1.80 mg/dL.

And the “Change from Baseline … (SD)” value [4]?
Its value is −2.61 (2.149) mg/dL.

And the “Change … Median” value [4]?
Its value is -3.00 mg/dL.

And the “Change from Baseline in Uric Acid, Min” value [4]?
The value was -7.05 mg/dL.

What about the “Change from Baseline in Uric Acid, Max” value [5] of the same molecule?
Its value is 3.50 mg/dL.

And the “Change from Baseline … (SD)” value [5]?
Its value is −2.43 (2.143) mg/dL.

And the “Change … Median” value [5]?
Its value is -2.70 mg/dL.

And the “Change from Baseline in Uric Acid, Min” value [5]?
The value was -6.61 mg/dL.

What about the “Change from Baseline in Uric Acid, Max” value [6] of the same molecule?
The value was 2.60 mg/dL.

What about the “Change from Baseline … (SD)” value [6] of the same molecule?
Its value is −2.30 (1.953) mg/dL.

And the “Change … Median” value [6]?
Its value is -2.40 mg/dL.

What about the “Change from Baseline in Uric Acid, Min” value [6] of the same molecule?
The value was -7.40 mg/dL.

What about the “Change from Baseline in Uric Acid, Max” value [7] of the same molecule?
The value was 2.40 mg/dL.

And the “Change from Baseline … (SD)” value [7]?
Its value is −0.82 (1.416) mg/dL.

And the “Change … Median” value [7]?
The value was -0.70 mg/dL.

And the “Change from Baseline in Uric Acid, Min” value [7]?
Its value is -5.21 mg/dL.

And the “Change from Baseline in Uric Acid, Max” value [8]?
Its value is 1.55 mg/dL.

And the “Change from Baseline … (SD)” value [8]?
The value was −0.63 (1.371) mg/dL.

What about the “Change … Median” value [8] of the same molecule?
Its value is -0.70 mg/dL.

And the “Change from Baseline in Uric Acid, Min” value [8]?
The value was -4.54 mg/dL.

And the “Change from Baseline in Uric Acid, Max” value [9]?
The value was 2.10 mg/dL.

And the “Change from Baseline … (SD)” value [9]?
The value was −0.79 (1.195) mg/dL.

What about the “Change … Median” value [9] of the same molecule?
The value was -0.83 mg/dL.

And the “Change from Baseline in Uric Acid, Min” value [9]?
Its value is -3.53 mg/dL.

What about the “Change from Baseline in Uric Acid, Max” value [10] of the same molecule?
The value was 1.50 mg/dL.

What about the “Change from Baseline … (SD)” value [10] of the same molecule?
Its value is −0.75 (1.500) mg/dL.

And the “Change … Median” value [10]?
The value was -0.52 mg/dL.

What about the “Change from Baseline in Uric Acid, Min” value [10] of the same molecule?
The value was -4.90 mg/dL.

And the “Change from Baseline in Uric Acid, Max” value [11]?
Its value is 1.20 mg/dL.

What about the “Change from Baseline … (SD)” value [11] of the same molecule?
The value was −0.53 (1.249) mg/dL.

What about the “Change … Median” value [11] of the same molecule?
The value was -0.40 mg/dL.

What about the “Change from Baseline in Uric Acid, Min” value [11] of the same molecule?
The value was -4.40 mg/dL.

And the “Change from Baseline in Uric Acid, Max” value [12]?
The value was 0.70 mg/dL.

What about the “Change from Baseline … (SD)” value [12] of the same molecule?
The value was −2.00 (1.454) mg/dL.

And the “Change … Median” value [12]?
Its value is -1.96 mg/dL.

What about the “Change from Baseline in Uric Acid, Min” value [12] of the same molecule?
The value was -5.21 mg/dL.

What about the “Change from Baseline in Uric Acid, Max” value [13] of the same molecule?
Its value is 2.00 mg/dL.

What about the “Change from Baseline … (SD)” value [13] of the same molecule?
Its value is −3.66 (1.902) mg/dL.

And the “Change … Median” value [13]?
Its value is -3.95 mg/dL.

And the “Change from Baseline in Uric Acid, Min” value [13]?
The value was -8.00 mg/dL.

And the “Change from Baseline in Uric Acid, Max” value [14]?
Its value is 1.00 mg/dL.

And the “Change from Baseline … (SD)” value [14]?
Its value is −3.43 (2.176) mg/dL.

What about the “Change … Median” value [14] of the same molecule?
The value was -3.50 mg/dL.

What about the “Change from Baseline in Uric Acid, Min” value [14] of the same molecule?
Its value is -8.40 mg/dL.

And the “Change from Baseline in Uric Acid, Max” value [15]?
Its value is -0.70 mg/dL.

What about the “Change from Baseline … (SD)” value [15] of the same molecule?
The value was −4.19 (1.978) mg/dL.

What about the “Change … Median” value [15] of the same molecule?
Its value is -4.27 mg/dL.

And the “Change from Baseline in Uric Acid, Min” value [15]?
The value was -7.90 mg/dL.

What about the “Change from Baseline in Uric Acid, Max” value [16] of the same molecule?
Its value is 1.00 mg/dL.

What about the “Change from Baseline … (SD)” value [16] of the same molecule?
The value was −3.52 (2.127) mg/dL.

What about the “Change … Median” value [16] of the same molecule?
The value was -4.03 mg/dL.

What about the “Change from Baseline in Uric Acid, Min” value [16] of the same molecule?
The value was -7.65 mg/dL.

What about the “Change from Baseline in Uric Acid, Max” value [17] of the same molecule?
Its value is 2.50 mg/dL.

And the “Change from Baseline … (SD)” value [17]?
The value was −0.29 (1.188) mg/dL.

And the “Change … Median” value [17]?
Its value is -0.30 mg/dL.

What about the “Change from Baseline in Uric Acid, Min” value [17] of the same molecule?
The value was -3.20 mg/dL.

And the “Change from Baseline in Uric Acid, Max” value [18]?
The value was 3.60 mg/dL.

What about the “Change from Baseline … (SD)” value [18] of the same molecule?
Its value is −0.49 (2.142) mg/dL.

What about the “Change … Median” value [18] of the same molecule?
Its value is -0.10 mg/dL.

And the “Change from Baseline in Uric Acid, Min” value [18]?
Its value is -9.70 mg/dL.

What about the “Change from Baseline in Uric Acid, Max” value [19] of the same molecule?
Its value is 4.60 mg/dL.

What about the “Change from Baseline … (SD)” value [19] of the same molecule?
The value was −0.46 (1.494) mg/dL.

What about the “Change … Median” value [19] of the same molecule?
Its value is -0.38 mg/dL.

What about the “Change from Baseline in Uric Acid, Min” value [19] of the same molecule?
Its value is -4.40 mg/dL.

And the “Change from Baseline in Uric Acid, Max” value [20]?
Its value is 2.70 mg/dL.

What about the “Change from Baseline … (SD)” value [20] of the same molecule?
The value was −0.56 (1.298) mg/dL.

And the “Change … Median” value [20]?
Its value is -0.34 mg/dL.

What about the “Change from Baseline in Uric Acid, Min” value [20] of the same molecule?
Its value is -3.50 mg/dL.
